In brackets after ≈: the same amount, converted by molar mass. Where a name gives a salt, the structure may show the parent alone.
Legend:
Experiment in all cases: Minimal inhibitory concentration, agar dilution method
Format in all cases: cell-based
[1] = system: Pseudomonas aeruginosa 104
Source text: (§1) When determined according to the agar dilution method, the penicillins (I) afford the minimal inhibitory concentrations against test microorganisms as shown in Table 2.

[2] = system: Staphylococcus aureus 209P
Source text: as §1

[3] = system: Klebsiella pneumoniae PCI602
Source text: as §1

Escherichia coli NIHJ = system: Escherichia coli NIHJ
Source text: as §1

Proteus miravilis GN2425 = system: Proteus miravilis GN2425
Proteus vulgaris HV19 = system: Proteus vulgaris HV19

| Structure (SMILES) | MIC [1] | MIC [2] | MIC [3] | MIC (Escherichia coli NIHJ) | MIC (Proteus miravilis GN2425) | MIC (Proteus vulgaris HV19) |
| --- | --- | --- | --- | --- | --- | --- |
| Cc1nc(O)c2c(O)c(C(=O)NC(C(=O)NC3C(=O)N4C3SC(C)(C)C4C(=O)O)c3cccc(N)c3)cnc2n1 (stereo not drawn) [Example 56] | 3.13 µg/mL (≈ 5.51 µM) | 1.56 µg/mL (≈ 2.75 µM) | 6.25 µg/mL (≈ 11 µM) | 1.56 µg/mL (≈ 2.75 µM) | 3.13 µg/mL (≈ 5.51 µM) | 0.05 µg/mL (≈ 0.0881 µM) |
| CC1(C)S[C@@H]2[C@H](NC(=O)[C@H](NC(=O)c3cnc4cccnc4c3O)c3ccc(N)cc3)C(=O)N2[C@H]1C(=O)O [Example 2, D-α-(4-hydroxy-1,5-naphthyridine-3-carboxamido)-p-aminobenzylpenicillin sodium salt] | 1.56 µg/mL | 1.56 µg/mL | 12.5 µg/mL | 0.78 µg/mL | 1.56 µg/mL | 0.025 µg/mL |
| CC1(C)SC2C(NC(=O)C(NC(=O)c3cnc4cccnc4c3O)c3ccc(O)c(N)c3)C(=O)N2C1C(=O)O (stereo not drawn) [Example 63] | 1.56 µg/mL (≈ 2.82 µM) | 0.78 µg/mL (≈ 1.41 µM) | 6.25 µg/mL (≈ 11.3 µM) | 0.78 µg/mL (≈ 1.41 µM) | 1.56 µg/mL (≈ 2.82 µM) | 0.025 µg/mL (≈ 0.0452 µM) |
| CC1(C)SC2C(NC(=O)C(NC(=O)c3cnc4cncnc4c3O)c3cccc(N)c3)C(=O)N2C1C(=O)O (stereo not drawn) [Example 33] | 0.78 µg/mL (≈ 1.45 µM) | 1.56 µg/mL (≈ 2.9 µM) | 6.25 µg/mL (≈ 11.6 µM) | 0.78 µg/mL (≈ 1.45 µM) | 0.78 µg/mL (≈ 1.45 µM) | 0.025 µg/mL (≈ 0.0465 µM) |
| CCOC(=O)Oc1c(C(=O)NC(C(=O)N[C@@H]2C(=O)N3[C@@H]2SC(C)(C)[C@@H]3C(=O)O)c2cccc(Cl)c2)cnc2cccnc12 (stereo partly drawn) [Example 12] | 3.13 µg/mL (≈ 4.98 µM) | 1.56 µg/mL (≈ 2.48 µM) | 12.5 µg/mL (≈ 19.9 µM) | 1.56 µg/mL (≈ 2.48 µM) | 1.56 µg/mL (≈ 2.48 µM) | 0.05 µg/mL (≈ 0.0796 µM) |
| COc1ccc([C@@H](NC(=O)c2cnc3cccnc3c2O)C(=O)N[C@@H]2C(=O)N3[C@@H]2SC(C)(C)[C@@H]3C(=O)O)cc1 [Example 4, D-α-(4-hydroxy-1,5-naphthyridine-3-carboxamido)-p-methoxybenzylpenicillin sodium salt] | 3.13 µg/mL | 1.56 µg/mL | 12.5 µg/mL | 3.13 µg/mL | 12.5 µg/mL | 0.1 µg/mL |
| CC1(C)SC2C(NC(=O)C(NC(=O)c3cnc4cccnc4c3S)c3cccc(N)c3)C(=O)N2C1C(=O)O (stereo not drawn) [Example 37] | 0.78 µg/mL (≈ 1.41 µM) | 1.56 µg/mL (≈ 2.82 µM) | 12.5 µg/mL (≈ 22.6 µM) | 1.56 µg/mL (≈ 2.82 µM) | 1.56 µg/mL (≈ 2.82 µM) | 0.05 µg/mL (≈ 0.0905 µM) |
| COc1cnc2c(O)c(C(=O)NC(C(=O)NC3C(=O)N4C3SC(C)(C)C4C(=O)O)c3cccc(N)c3)cnc2n1 (stereo not drawn) [Example 39] | 0.78 µg/mL (≈ 1.37 µM) | 0.78 µg/mL (≈ 1.37 µM) | 6.25 µg/mL (≈ 11 µM) | 0.78 µg/mL (≈ 1.37 µM) | 0.78 µg/mL (≈ 1.37 µM) | 0.025 µg/mL (≈ 0.044 µM) |
| CC(=O)Nc1ccc2ncc(C(=O)NC(C(=O)N[C@@H]3C(=O)N4[C@@H]3SC(C)(C)[C@@H]4C(=O)O)c3cccc(N)c3)c(O)c2n1 (stereo partly drawn) [Example 26] | 0.78 µg/mL (≈ 1.31 µM) | 1.56 µg/mL (≈ 2.63 µM) | 6.25 µg/mL (≈ 10.5 µM) | 0.78 µg/mL (≈ 1.31 µM) | 0.78 µg/mL (≈ 1.31 µM) | 0.025 µg/mL (≈ 0.0421 µM) |
| CC1(C)S[C@@H]2[C@H](NC(=O)C(NC(=O)c3cnc4cccnc4c3O)c3cccc(I)c3)C(=O)N2[C@H]1C(=O)O (stereo partly drawn) [Example 11] | 3.13 µg/mL (≈ 4.83 µM) | 1.56 µg/mL (≈ 2.41 µM) | 12.5 µg/mL (≈ 19.3 µM) | 1.56 µg/mL (≈ 2.41 µM) | 1.56 µg/mL (≈ 2.41 µM) | 0.05 µg/mL (≈ 0.0772 µM) |
| Cc1ccc2ncc(C(=O)NC(C(=O)NC3C(=O)N4C3SC(C)(C)C4C(=O)O)c3ccc(N(C)C)cc3)c(O)c2n1 (stereo not drawn) [Example 45] | 1.56 µg/mL (≈ 2.7 µM) | 1.56 µg/mL (≈ 2.7 µM) | 6.25 µg/mL (≈ 10.8 µM) | 3.13 µg/mL (≈ 5.41 µM) | 6.25 µg/mL (≈ 10.8 µM) | 0.1 µg/mL (≈ 0.173 µM) |
| CC1(C)S[C@@H]2[C@H](NC(=O)C(NC(=O)c3cc4ccccc4nc3O)c3cccc(N)c3)C(=O)N2[C@H]1C(=O)O (stereo partly drawn) [Example 31] | 3.13 µg/mL (≈ 5.84 µM) | 0.78 µg/mL (≈ 1.46 µM) | 12.5 µg/mL (≈ 23.3 µM) | 3.13 µg/mL (≈ 5.84 µM) | 3.13 µg/mL (≈ 5.84 µM) | 0.39 µg/mL (≈ 0.728 µM) |
| CC1(C)S[C@@H]2[C@H](NC(=O)C(NC(=O)c3cnc4cc([N+](=O)[O-])ccc4c3O)c3cccc(N)c3)C(=O)N2[C@H]1C(=O)O (stereo partly drawn) [Example 25] | 3.13 µg/mL (≈ 5.39 µM) | 0.78 µg/mL (≈ 1.34 µM) | 12.5 µg/mL (≈ 21.5 µM) | 3.13 µg/mL (≈ 5.39 µM) | 3.13 µg/mL (≈ 5.39 µM) | 0.2 µg/mL (≈ 0.344 µM) |
| CC1(C)S[C@@H]2[C@H](NC(=O)C(NC(=O)c3nc4ccccc4nc3O)c3cccc(N)c3)C(=O)N2[C@H]1C(=O)O (stereo partly drawn) [Example 14] | 0.78 µg/mL (≈ 1.45 µM) | 0.78 µg/mL (≈ 1.45 µM) | 12.5 µg/mL (≈ 23.3 µM) | 3.13 µg/mL (≈ 5.83 µM) | 12.5 µg/mL (≈ 23.3 µM) | 0.78 µg/mL (≈ 1.45 µM) |
| CC1(C)SC2C(NC(=O)C(NC(=O)c3cnc4ccc(N5CCCC5)nc4c3O)c3ccc(N)cc3)C(=O)N2C1C(=O)O (stereo not drawn) [Example 52] | 1.56 µg/mL (≈ 2.58 µM) | 1.56 µg/mL (≈ 2.58 µM) | 6.25 µg/mL (≈ 10.3 µM) | 0.78 µg/mL (≈ 1.29 µM) | 1.56 µg/mL (≈ 2.58 µM) | 0.05 µg/mL (≈ 0.0826 µM) |
| CC1(C)SC2C(NC(=O)C(NC(=O)c3nc4ccccc4nc3O)c3cccc(F)c3)C(=O)N2C1C(=O)O (stereo not drawn) [Example 48] | 1.56 µg/mL (≈ 2.89 µM) | 0.78 µg/mL (≈ 1.45 µM) | 12.5 µg/mL (≈ 23.2 µM) | 3.13 µg/mL (≈ 5.8 µM) | 12.5 µg/mL (≈ 23.2 µM) | 0.2 µg/mL (≈ 0.371 µM) |
| CC1(C)SC2C(NC(=O)C(NC(=O)c3cnc4nc(N)ncc4c3O)c3cccc(N)c3)C(=O)N2C1C(=O)O (stereo not drawn) [Example 42] | 3.13 µg/mL (≈ 5.66 µM) | 1.56 µg/mL (≈ 2.82 µM) | 12.5 µg/mL (≈ 22.6 µM) | 3.13 µg/mL (≈ 5.66 µM) | 1.56 µg/mL (≈ 2.82 µM) | 0.05 µg/mL (≈ 0.0905 µM) |
| CNc1ncc2c(O)c(C(=O)NC(C(=O)NC3C(=O)N4C3SC(C)(C)C4C(=O)O)c3cccc(N)c3)cnc2n1 (stereo not drawn) [Example 43] | 3.13 µg/mL (≈ 5.52 µM) | 1.56 µg/mL (≈ 2.75 µM) | 12.5 µg/mL (≈ 22.1 µM) | 3.13 µg/mL (≈ 5.52 µM) | 1.56 µg/mL (≈ 2.75 µM) | 0.05 µg/mL (≈ 0.0882 µM) |
| CC1(C)SC2C(NC(=O)C(NC(=O)c3cnc4cccnc4c3O)c3ccc(O)c(O)c3)C(=O)N2C1C(=O)O (stereo not drawn) [Example 61] | 1.56 µg/mL (≈ 2.82 µM) | 0.78 µg/mL (≈ 1.41 µM) | 12.5 µg/mL (≈ 22.6 µM) | 0.78 µg/mL (≈ 1.41 µM) | 1.56 µg/mL (≈ 2.82 µM) | 0.025 µg/mL (≈ 0.0452 µM) |
| CC1(C)SC2C(NC(=O)C(NC(=O)c3cnc4nc(N5CCOCC5)ncc4c3O)c3ccc(N)cc3)C(=O)N2C1C(=O)O (stereo not drawn) [Example 54] | 3.13 µg/mL (≈ 5.03 µM) | 1.56 µg/mL (≈ 2.51 µM) | 6.25 µg/mL (≈ 10 µM) | 3.13 µg/mL (≈ 5.03 µM) | 3.13 µg/mL (≈ 5.03 µM) | 0.05 µg/mL (≈ 0.0803 µM) |
| CC(=O)Nc1cccc([C@@H](NC(=O)c2cnc3ccccc3c2OC(=O)C(C)(C)C)C(=O)N[C@@H]2C(=O)N3[C@@H]2SC(C)(C)[C@@H]3C(=O)O)c1 [Example 7, D-α-(4-pivaloyloxyquinoline-3-carboxamido)-m-acetylaminobenzylpenicillin] | 6.25 µg/mL (≈ 9.44 µM) | 0.78 µg/mL (≈ 1.18 µM) | 6.25 µg/mL (≈ 9.44 µM) | 3.13 µg/mL (≈ 4.73 µM) | 6.25 µg/mL (≈ 9.44 µM) | 0.2 µg/mL (≈ 0.302 µM) |
| COc1nc(OC)c2ncc(C(=O)NC(C(=O)NC3C(=O)N4C3SC(C)(C)C4C(=O)O)c3cccc(N)c3)c(O)c2n1 (stereo not drawn) [Example 57] | 1.56 µg/mL (≈ 2.61 µM) | 1.56 µg/mL (≈ 2.61 µM) | 6.25 µg/mL (≈ 10.5 µM) | 0.78 µg/mL (≈ 1.31 µM) | 1.56 µg/mL (≈ 2.61 µM) | 0.025 µg/mL (≈ 0.0418 µM) |
| CC1(C)SC2C(NC(=O)C(NC(=O)c3cnc4scnc4c3O)c3cccc(N)c3)C(=O)N2C1C(=O)O (stereo not drawn) [Example 40] | 1.56 µg/mL (≈ 2.88 µM) | 1.56 µg/mL (≈ 2.88 µM) | 6.25 µg/mL (≈ 11.5 µM) | 1.56 µg/mL (≈ 2.88 µM) | 1.56 µg/mL (≈ 2.88 µM) | 0.025 µg/mL (≈ 0.0461 µM) |
| CCOC(=O)Oc1c(C(=O)NC(C(=O)NC2C(=O)N3C2SC(C)(C)C3C(=O)O)c2ccc(OC)cc2)cnc2ccc(C)nc12 (stereo not drawn) [Example 46] | 3.13 µg/mL (≈ 4.91 µM) | 1.56 µg/mL (≈ 2.45 µM) | 12.5 µg/mL (≈ 19.6 µM) | 3.13 µg/mL (≈ 4.91 µM) | 12.5 µg/mL (≈ 19.6 µM) | 0.1 µg/mL (≈ 0.157 µM) |
| COc1ccc(C(NC(=O)c2cnc3ccc(C)nc3c2O)C(=O)NC2C(=O)N3C2SC(C)(C)C3C(=O)O)cc1 (stereo not drawn) [Example 44] | 3.13 µg/mL (≈ 5.53 µM) | 1.56 µg/mL (≈ 2.76 µM) | 12.5 µg/mL (≈ 22.1 µM) | 3.13 µg/mL (≈ 5.53 µM) | 6.25 µg/mL (≈ 11.1 µM) | 0.05 µg/mL (≈ 0.0884 µM) |
| CC1(C)S[C@@H]2[C@H](NC(=O)C(NC(=O)c3cnc4ccc(O)nc4c3O)c3cccc(N)c3)C(=O)N2[C@H]1C(=O)O (stereo partly drawn) [Example 30] | 1.56 µg/mL (≈ 2.82 µM) | 1.56 µg/mL (≈ 2.82 µM) | 6.25 µg/mL (≈ 11.3 µM) | 0.78 µg/mL (≈ 1.41 µM) | 1.56 µg/mL (≈ 2.82 µM) | 0.05 µg/mL (≈ 0.0905 µM) |

Reference: patent US3992371A, “Penicillins substituted with heterocyclic and substituted phenyl groups” (Sumitomo Chemical Company, Limited, priority 1973, dated 1976)
